According to PubChem BioAssay (NCI):
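How tested: cells in 96-well plates exposed to compound for 48 hours at five concentrations. Definition used: TGI = concentration required for complete inhibition of growth.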

What was measured:
Assay in all cases: DTP human tumour cell line panel, 48 h
786-0 renal = test system: 786-0 renal
A549 NSCLC = test system: A549 NSCLC
ACHN renal = test system: ACHN renal
CAKI-1 renal = test system: CAKI-1 renal
CCRF-CEM leukemia = test system: CCRF-CEM leukemia
COLO 205 colon = test system: COLO 205 colon
DLD-1 colon = test system: DLD-1 colon
DMS 114 small cell lung = test system: DMS 114 small cell lung
DMS 273 small cell lung = test system: DMS 273 small cell lung
EKVX NSCLC = test system: EKVX NSCLC
HCC-2998 colon = test system: HCC-2998 colon
HCT-116 colon = test system: HCT-116 colon
HCT-15 colon = test system: HCT-15 colon
HL-60(TB) leukemia = test system: HL-60(TB) leukemia
HOP-18 NSCLC = test system: HOP-18 NSCLC
HOP-62 NSCLC = test system: HOP-62 NSCLC
HT29 colon = test system: HT29 colon
K-562 leukemia = test system: K-562 leukemia
KM12 colon = test system: KM12 colon
LOX IMVI melanoma = test system: LOX IMVI melanoma
M14 melanoma = test system: M14 melanoma
M19-MEL melanoma = test system: M19-MEL melanoma
MALME-3M melanoma = test system: MALME-3M melanoma
MOLT-4 leukemia = test system: MOLT-4 leukemia
NCI-H226 lung = test system: NCI-H226 lung
NCI-H23 lung = test system: NCI-H23 lung
NCI-H460 lung = test system: NCI-H460 lung
NCI-H522 lung = test system: NCI-H522 lung
OVCAR-3 ovarian = test system: OVCAR-3 ovarian
OVCAR-4 ovarian = test system: OVCAR-4 ovarian
OVCAR-5 ovarian = test system: OVCAR-5 ovarian
OVCAR-8 ovarian = test system: OVCAR-8 ovarian
RPMI-8226 leukemia = test system: RPMI-8226 leukemia
SF-268 CNS = test system: SF-268 CNS
SF-295 CNS = test system: SF-295 CNS
SF-539 CNS = test system: SF-539 CNS
SK-MEL-2 melanoma = test system: SK-MEL-2 melanoma
SK-MEL-28 melanoma = test system: SK-MEL-28 melanoma
SK-MEL-5 melanoma = test system: SK-MEL-5 melanoma
SN12C renal = test system: SN12C renal
SNB-19 CNS = test system: SNB-19 CNS
SNB-75 CNS = test system: SNB-75 CNS
SNB-78 CNS = test system: SNB-78 CNS
SW-620 colon = test system: SW-620 colon
TK-10 renal = test system: TK-10 renal
UACC-257 melanoma = test system: UACC-257 melanoma
UO-31 renal = test system: UO-31 renal
XF 498 CNS = test system: XF 498 CNS
A498 renal = test system: A498 renal
BT-549 breast = test system: BT-549 breast
DU-145 prostate = test system: DU-145 prostate
HOP-92 NSCLC = test system: HOP-92 NSCLC
HS 578T breast = test system: HS 578T breast
IGROV1 ovarian = test system: IGROV1 ovarian
MCF7 breast = test system: MCF7 breast
MDA-MB-231 breast = test system: MDA-MB-231 breast
MDA-MB-435 = test system: MDA-MB-435
MDA-N = test system: MDA-N
NCI/ADR-RES ovarian = test system: NCI/ADR-RES ovarian
PC-3 prostate = test system: PC-3 prostate
RXF 393 renal = test system: RXF 393 renal
SK-OV-3 ovarian = test system: SK-OV-3 ovarian
SR leukemia = test system: SR leukemia
T-47D breast = test system: T-47D breast
U251 CNS = test system: U251 CNS
UACC-62 melanoma = test system: UACC-62 melanoma

With `COc1ccc(CNc2cnc3ccc(N)cc3n2)cc1` the TGI (786-0 renal) was over 100 µM, the TGI (A549 NSCLC) was over 100 µM and the TGI (ACHN renal) was over 100 µM. It also gave a TGI (CAKI-1 renal) of over 100 µM, a TGI (CCRF-CEM leukemia) of over 100 µM and a TGI (COLO 205 colon) of 34.6 µM. It also gave a TGI (DLD-1 colon) of over 100 µM, a TGI (DMS 114 small cell lung) of over 100 µM and a TGI (DMS 273 small cell lung) of over 100 µM. The TGI (EKVX NSCLC) was over 100 µM, the TGI (HCC-2998 colon) was over 100 µM and the TGI (HCT-116 colon) was 11.7 µM. It also gave a TGI (HCT-15 colon) of over 100 µM, a TGI (HL-60(TB) leukemia) of over 100 µM and a TGI (HOP-18 NSCLC) of over 100 µM. The TGI (HOP-62 NSCLC) was over 100 µM, the TGI (HT29 colon) was over 100 µM and the TGI (K-562 leukemia) was over 100 µM. For the same compound, the TGI (KM12 colon) was over 100 µM, the TGI (LOX IMVI melanoma) was over 100 µM and the TGI (M14 melanoma) was over 100 µM. It also gave a TGI (M19-MEL melanoma) of over 100 µM, a TGI (MALME-3M melanoma) of over 100 µM and a TGI (MOLT-4 leukemia) of over 100 µM. It also gave a TGI (NCI-H226 lung) of over 100 µM, a TGI (NCI-H23 lung) of over 100 µM and a TGI (NCI-H460 lung) of over 100 µM. It also gave a TGI (NCI-H522 lung) of over 100 µM, a TGI (OVCAR-3 ovarian) of over 100 µM and a TGI (OVCAR-4 ovarian) of over 100 µM. It also gave a TGI (OVCAR-5 ovarian) of over 100 µM, a TGI (OVCAR-8 ovarian) of over 100 µM and a TGI (RPMI-8226 leukemia) of over 100 µM. For the same compound, the TGI (SF-268 CNS) was over 100 µM, the TGI (SF-295 CNS) was over 100 µM and the TGI (SF-539 CNS) was over 100 µM. The TGI (SK-MEL-2 melanoma) was over 100 µM, the TGI (SK-MEL-28 melanoma) was over 100 µM and the TGI (SK-MEL-5 melanoma) was over 100 µM. For the same compound, the TGI (SN12C renal) was over 100 µM, the TGI (SNB-19 CNS) was over 100 µM and the TGI (SNB-75 CNS) was over 100 µM. The TGI (SNB-78 CNS) was over 100 µM, the TGI (SW-620 colon) was over 100 µM and the TGI (TK-10 renal) was over 100 µM. The TGI (UACC-257 melanoma) was over 100 µM, the TGI (UO-31 renal) was over 100 µM and the TGI (XF 498 CNS) was over 100 µM.
Compound `c1ccc(C2=NC3OC2c2ccccc23)cc1` (stereo unspecified) has a TGI (786-0 renal) of over 10 µM, a TGI (A498 renal) of over 10 µM and a TGI (A549 NSCLC) of over 10 µM. For the same compound, the TGI (ACHN renal) was over 10 µM, the TGI (BT-549 breast) was over 10 µM and the TGI (CAKI-1 renal) was over 10 µM. It also gave a TGI (CCRF-CEM leukemia) of over 10 µM, a TGI (COLO 205 colon) of over 10 µM and a TGI (DU-145 prostate) of over 10 µM. The TGI (EKVX NSCLC) was over 10 µM, the TGI (HCC-2998 colon) was over 10 µM and the TGI (HCT-116 colon) was over 10 µM. The TGI (HCT-15 colon) was over 10 µM, the TGI (HL-60(TB) leukemia) was over 10 µM and the TGI (HOP-62 NSCLC) was over 10 µM. For the same compound, the TGI (HOP-92 NSCLC) was over 10 µM, the TGI (HS 578T breast) was over 10 µM and the TGI (HT29 colon) was over 10 µM. For the same compound, the TGI (IGROV1 ovarian) was over 10 µM, the TGI (K-562 leukemia) was over 10 µM and the TGI (KM12 colon) was over 10 µM. The TGI (LOX IMVI melanoma) was over 10 µM, the TGI (M14 melanoma) was over 10 µM and the TGI (MALME-3M melanoma) was over 10 µM. The TGI (MCF7 breast) was over 10 µM, the TGI (MDA-MB-231 breast) was over 10 µM and the TGI (MDA-MB-435) was over 10 µM. For the same compound, the TGI (MDA-N) was over 10 µM, the TGI (MOLT-4 leukemia) was over 10 µM and the TGI (NCI-H226 lung) was over 10 µM. The TGI (NCI-H23 lung) was over 10 µM, the TGI (NCI-H460 lung) was over 10 µM and the TGI (NCI-H522 lung) was over 10 µM. The TGI (NCI/ADR-RES ovarian) was over 10 µM, the TGI (OVCAR-3 ovarian) was over 10 µM and the TGI (OVCAR-4 ovarian) was over 10 µM. It also gave a TGI (OVCAR-5 ovarian) of over 10 µM, a TGI (OVCAR-8 ovarian) of over 10 µM and a TGI (PC-3 prostate) of over 10 µM. It also gave a TGI (RPMI-8226 leukemia) of over 10 µM, a TGI (RXF 393 renal) of over 10 µM and a TGI (SF-268 CNS) of over 10 µM. For the same compound, the TGI (SF-295 CNS) was over 10 µM, the TGI (SF-539 CNS) was over 10 µM and the TGI (SK-MEL-2 melanoma) was over 10 µM. It also gave a TGI (SK-MEL-28 melanoma) of over 10 µM, a TGI (SK-MEL-5 melanoma) of over 10 µM and a TGI (SK-OV-3 ovarian) of over 10 µM. The TGI (SN12C renal) was over 10 µM, the TGI (SNB-19 CNS) was over 10 µM and the TGI (SNB-75 CNS) was over 10 µM. The TGI (SR leukemia) was over 10 µM, the TGI (SW-620 colon) was over 10 µM and the TGI (T-47D breast) was over 10 µM. For the same compound, the TGI (TK-10 renal) was over 10 µM, the TGI (U251 CNS) was over 10 µM and the TGI (UACC-257 melanoma) was over 10 µM. The TGI (UACC-62 melanoma) was over 10 µM.
